From patent publication US7554012B2, “Plants and plant cells exhibiting resistance to AMPA, and methods for making the same” (priority 1998, dated 2009)
Like-named read-outs stand apart in the source and are kept apart here.

How the values were obtained:
[1] = target: T1, purified PhnO protein (Escherichia coli, UniProt P16691, P2A); assay: AMPA transacylase acyl-CoA acyl donor specificity, HPLC; type: biochemical, E. coli; conditions: for [^14C]-AMPA % Conversion: 5 minutes 30° C.; for % Activity: 1 mM acetyl-CoA = 100% reference
T1 construct: made in house; host or cells: E. coli JM101 carrying pMON15032 (recA promoter, nalidixic acid induction)
Procedure: PhnO was purified from a one liter Luria Bertani broth culture of E. coli JM101 expressing a recombinant phnO gene from pMON15032 after nalidixic acid induction for three hours at 37° C. Cells were harvested by centrifugation and resuspended in 40 ml cold Tris buffer (0.1 M Tris-HCl pH 8) and placed on ice. The cell suspension was brought to 1 mM DTT and 0.5 mM PMSF. The suspension was lysed by 2 passages through a prechilled French pressure cell at 1,100 psi, centrifuged at 12,000 g (10,000 rpm in an Sorvall SA600 rotor) for 40 min at 4° C., then placed on ice. The cleared supernatants were poured into fresh 15 ml polypropylene tubes. The samples were split again into two equal portions and maintained at −80° C. until used further for purification of PhnO protein. 20 microliters of the soluble fraction was assayed for enzyme activity using the HPLC method described above in Example 2, except after terminating the assay with acid addition, the sample was stored at −80° C. A Sephacryl S200 column was prepared according to the manufacturers' instructions and equilibrated with a solution containing 20 mM Tris pH 8.0 and 0.5 mM MgCl2. The entire total soluble extract was layered over the top of the column bed after thawing on ice. Forty 9 ml fractions were collected from the column eluate, and thirty microliters of each fraction was analyzed by western blot using anti-PhnO antiserum after resolution on a 15% SDS-PAGE gel. Also, thirty microliters of each fraction was analyzed for AMPA acyl transferase activity using the method described in Example 2. […] These were represented by fractions 7 through 19 in this example, and were combined into a 100 ml volume, distributed into […] each containing 10 ml volumes, and stored at −80° C. for further use.
Anion exchange chromatography was used to determine the elution pattern of PhnO away from other contaminating proteins that co-elute during the Sephacryl S200 fractionation. One tube from the combined PhnO positive fractions was thawed on ice and injected into a 5/5 Mono-Q column pre-equilibrated with buffers A (one liter of 20 mM Tris-HCl pH 8.0 Mili-Q distilled deionized water) and B (one liter of 20 mM Tris-HCl pH 8.0, 1 M NaCl). The sample containing PhnO active protein was injected into the column and one milliliter fractions were collected. The column was washed for five minutes with a flow rate of 1.8 ml per minute Buffer A after loading the PhnO containing sample. At five minutes, Buffer B was added to the flow volume at 0.5 ml per minute for four minutes. Buffer B was ramped up to 22% of the flow volume at 10 minutes, 30% at 12 minutes, 36% at 13 minutes, 41% at 14 minutes, 46% at 15 minutes, 74% at 16 minutes, and 100% at 16 minutes through 22 minutes, at which point Buffer B flow was terminated and Buffer A was reinitiated at 100% to equilibrate the column. Ten microliter volumes from individual fractions collected from the Mono-Q column were analyzed by western blot and for transacylase activity as described in Example 2. […] Samples of this purified PhnO protein were used to determine enzyme's acyl donor substrate specificity.
Enzyme reactions were prepared as follows. […] A assay premix was prepared from which 45 microliters was used in each 100 microliter reaction. This 45 microliter premix sample consisted of 40 microliters distilled and deionized water, 2 microliters of 50 mM MgCl2, and 3 microliters of 1.3 mM [^14C]-AMPA (115,392 dpm per microliter). Reactions were initiated by mixing 40 microliters of 125 mM Tris-HCl pH 8.0, […] protein sample and 10 microliters acyl-CoA acyl donor compound in a microcentrifuge tube at room temperature. Each acyl-CoA acyl donor compound was prepared as a stock solution of 1 mM, 5 mM or 10 mM stocks. Each tube was then mixed with 45 microliters of the assay premix containing the [^14C]-AMPA […] substrate, mixed gently and transferred to a 30° C. water bath for 5 minutes. […]

[2] = target: PhnO enzyme (Escherichia coli, UniProt P16691, P2A)
Procedure: The ability of the enzyme to produce N-acetyl AMPA from a mixture containing acetyl-CoA and AMPA across a range of pH values was determined. The reactions were carried out in MES/MOPS/Tricine buffer equilibrated to a pH value from 4.5 to 9.0, with actual pH values ranging from 5.2 through 9.0. Briefly, 95 microliters of an appropriate buffer was mixed with 100 microliters of 2×assay mix as described in example 4, and 5 microliters of desalted E. coli lysate containing approximately 400 ng/microliter PhnO protein.

C/C=C/C(=O)SCCNC(=O)CCNC(=O)[C@H](O)C(C)(C)COP(=O)(O)OP(=O)(O)OC[C@H]1O[C@@H](n2cnc3c(N)ncnc32)[C@H](O)[C@@H]1OP(=O)(O)O [Crotonoyl-CoA, crotonoyl-CoA]
[^14C]-AMPA % Conversion ([1]; acyl donor 0.1 mM): 0.80%
% Activity ([1]; acyl donor 0.1 mM): 0.80%
[^14C]-AMPA % Conversion ([1]; acyl donor 0.5 mM): 0.00%
% Activity ([1]; acyl donor 0.5 mM): 0.00%
[^14C]-AMPA % Conversion ([1]; acyl donor 1 mM): 0.00%
% Activity ([1]; acyl donor 1 mM): 0.00%

CCNC(=O)CCNC(=O)[C@H](O)C(C)(C)COP(=O)(O)OP(=O)(O)OC[C@H]1O[C@@H](n2cnc3c(N)ncnc32)[C@H](O)[C@@H]1OP(=O)(O)O [Desulfo-CoA, desulfo-CoA]
[^14C]-AMPA % Conversion ([1]; acyl donor 0.1 mM): 0.95%
% Activity ([1]; acyl donor 0.1 mM): 0.95%
[^14C]-AMPA % Conversion ([1]; acyl donor 0.5 mM): 1.25%
% Activity ([1]; acyl donor 0.5 mM): 1.25%
[^14C]-AMPA % Conversion ([1]; acyl donor 1 mM): 0.52%
% Activity ([1]; acyl donor 1 mM): 0.52%

CC(C)(COP(=O)(O)OP(=O)(O)OC[C@H]1O[C@@H](n2cnc3c(N)ncnc32)[C@H](O)[C@@H]1OP(=O)(O)O)[C@@H](O)C(=O)NCCC(=O)NCCSC(=O)CCCC(=O)O [Glutaryl-CoA, glutaryl-CoA]
[^14C]-AMPA % Conversion ([1]; acyl donor 0.1 mM): 0.81%
% Activity ([1]; acyl donor 0.1 mM): 0.81%
[^14C]-AMPA % Conversion ([1]; acyl donor 0.5 mM): 0.00%
% Activity ([1]; acyl donor 0.5 mM): 0.00%
[^14C]-AMPA % Conversion ([1]; acyl donor 1 mM): 0.57%
% Activity ([1]; acyl donor 1 mM): 0.57%

CC(C)C(=O)SCCNC(=O)CCNC(=O)[C@H](O)C(C)(C)COP(=O)(O)OP(=O)(O)OC[C@H]1O[C@@H](n2cnc3c(N)ncnc32)[C@H](O)[C@@H]1OP(=O)(O)O [Isobutyryl-CoA, isobutyryl-CoA]
[^14C]-AMPA % Conversion ([1]; acyl donor 0.1 mM): 2.10%
% Activity ([1]; acyl donor 0.1 mM): 2.10%
[^14C]-AMPA % Conversion ([1]; acyl donor 0.5 mM): 0.20%
% Activity ([1]; acyl donor 0.5 mM): 0.20%
[^14C]-AMPA % Conversion ([1]; acyl donor 1 mM): 0.00%
% Activity ([1]; acyl donor 1 mM): 0.00%

CC(C(=O)O)C(=O)SCCNC(=O)CCNC(=O)[C@H](O)C(C)(C)COP(=O)(O)OP(=O)(O)OC[C@H]1O[C@@H](n2cnc3c(N)ncnc32)[C@H](O)[C@@H]1OP(=O)(O)O (stereo partly shown) [Methylmalonyl-CoA, methylmalonyl CoA]
[^14C]-AMPA % Conversion ([1]; acyl donor 0.1 mM): 1.11%
% Activity ([1]; acyl donor 0.1 mM): 1.11%
[^14C]-AMPA % Conversion ([1]; acyl donor 0.5 mM): 2.08%
% Activity ([1]; acyl donor 0.5 mM): 2.08%
[^14C]-AMPA % Conversion ([1]; acyl donor 1 mM): 2.21%
% Activity ([1]; acyl donor 1 mM): 2.21%

CCC(=O)SCCNC(=O)CCNC(=O)[C@H](O)C(C)(C)COP(=O)(O)OP(=O)(O)OC[C@H]1O[C@@H](n2cnc3c(N)ncnc32)[C@H](O)[C@@H]1OP(=O)(O)O [Propionyl-CoA, n-propionyl-CoA]
[^14C]-AMPA % Conversion ([1]; acyl donor 0.1 mM): 78.2%
% Activity ([1]; acyl donor 0.1 mM): 78.2%
[^14C]-AMPA % Conversion ([1]; acyl donor 0.5 mM): 97.8%
% Activity ([1]; acyl donor 0.5 mM): 97.8%
[^14C]-AMPA % Conversion ([1]; acyl donor 1 mM): 100.00%
% Activity ([1]; acyl donor 1 mM): 100.00%

CC(C)(COP(=O)(O)OP(=O)(O)OC[C@H]1O[C@@H](n2cnc3c(N)ncnc32)[C@H](O)[C@@H]1OP(=O)(O)O)[C@@H](O)C(=O)NCCC(=O)NCCSC(=O)CCC(=O)O [Succinyl-CoA, succinyl-CoA]
[^14C]-AMPA % Conversion ([1]; acyl donor 0.1 mM): 5.06%
% Activity ([1]; acyl donor 0.1 mM): 5.06%
[^14C]-AMPA % Conversion ([1]; acyl donor 0.5 mM): 3.38%
% Activity ([1]; acyl donor 0.5 mM): 3.38%
[^14C]-AMPA % Conversion ([1]; acyl donor 1 mM): 1.56%
% Activity ([1]; acyl donor 1 mM): 1.56%

C/C=C(\C)C(=O)SCCNC(=O)CCNC(=O)[C@H](O)C(C)(C)COP(=O)(O)OP(=O)(O)OC[C@H]1O[C@@H](n2cnc3c(N)ncnc32)[C@H](O)[C@@H]1OP(=O)(O)O [Tiglyl-CoA, tiglyl-CoA]
[^14C]-AMPA % Conversion ([1]; acyl donor 0.1 mM): 0.00%
% Activity ([1]; acyl donor 0.1 mM): 0.00%
[^14C]-AMPA % Conversion ([1]; acyl donor 0.5 mM): 0.00%
% Activity ([1]; acyl donor 0.5 mM): 0.00%
[^14C]-AMPA % Conversion ([1]; acyl donor 1 mM): 0.99%
% Activity ([1]; acyl donor 1 mM): 0.99%

CCCCC(=O)SCCNC(=O)CCNC(=O)[C@H](O)C(C)(C)COP(=O)(O)OP(=O)(O)OC[C@H]1O[C@@H](n2cnc3c(N)ncnc32)[C@H](O)[C@@H]1OP(=O)(O)O [Valeryl-CoA, n-valeryl-CoA]
[^14C]-AMPA % Conversion ([1]; acyl donor 0.1 mM): 0.24%
% Activity ([1]; acyl donor 0.1 mM): 0.24%
[^14C]-AMPA % Conversion ([1]; acyl donor 0.5 mM): 0.00%
% Activity ([1]; acyl donor 0.5 mM): 0.00%
[^14C]-AMPA % Conversion ([1]; acyl donor 1 mM): 0.33%
% Activity ([1]; acyl donor 1 mM): 0.33%

B1: PhnO: AMPA acyltransferase protein encoded by the phnO gene within the E. coli phn operon (protein)
chain: MAACELRPATQYDTDAVYALICELKQAEFDHHAFRVGFNANLRDPNMRYHLALLDGEVVGMIGLHLQFHLHHVNWIGEIQELVVMPQARGLNVGSKLLAWAEEEARQAGAEMTELSTNVKRHDAHRFYLREGYEQSHFRFTKAL
pH of optimum PhnO transacylase activity ([2]; AMPA and acetyl-CoA as substrates): ~8.0 pH
N-Acetyl CoA ([2]; Buffer pH 5.0): 222 nmol
Velocity ([2]; Buffer pH 5.0): 22.2 nmole/min/microgram
% Turnover ([2]; Buffer pH 5.0 (mock reaction pH 5.23)): 3.7%
N-Acetyl CoA ([2]; Buffer pH 5.5): 234 nmol
Velocity ([2]; Buffer pH 5.5): 23.4 nmole/min/microgram
% Turnover ([2]; Buffer pH 5.5 (mock reaction pH 5.62)): 3.9%
N-Acetyl CoA ([2]; Buffer pH 6.0): 252 nmol
Velocity ([2]; Buffer pH 6.0): 25.2 nmole/min/microgram
% Turnover ([2]; Buffer pH 6.0 (mock reaction pH 5.92)): 4.2%
N-Acetyl CoA ([2]; Buffer pH 6.5): 798 nmol
Velocity ([2]; Buffer pH 6.5): 79.8 nmole/min/microgram
% Turnover ([2]; Buffer pH 6.5 (mock reaction pH 6.47)): 13.3%
N-Acetyl CoA ([2]; Buffer pH 7.0): 1620 nmol
Velocity ([2]; Buffer pH 7.0): 162.0 nmole/min/microgram
% Turnover ([2]; Buffer pH 7.0 (mock reaction pH 7.0)): 27.0%
N-Acetyl CoA ([2]; Buffer pH 7.5): 1920 nmol
Velocity ([2]; Buffer pH 7.5): 192.0 nmole/min/microgram
% Turnover ([2]; Buffer pH 7.5 (mock reaction pH 7.48)): 32.0%
N-Acetyl CoA ([2]; Buffer pH 8.0): 2058 nmol
Velocity ([2]; Buffer pH 8.0): 205.8 nmole/min/microgram
% Turnover ([2]; Buffer pH 8.0 (mock reaction pH 8.05)): 34.3%
N-Acetyl CoA ([2]; Buffer pH 8.5): 2010 nmol
Velocity ([2]; Buffer pH 8.5): 201.0 nmole/min/microgram
% Turnover ([2]; Buffer pH 8.5 (mock reaction pH 8.46)): 33.5%
N-Acetyl CoA ([2]; Buffer pH 9.0): 2034 nmol
Velocity ([2]; Buffer pH 9.0): 203.4 nmole/min/microgram
% Turnover ([2]; Buffer pH 9.0 (mock reaction pH 9.0)): 33.9%
